Key:
Assay type in all cases: functional
A549 [1] = test: Growth inhibition of human A549/ATCC cells assessed as cell growth at 100 uM incubated for 48 hrs by sulforhodamine B assay relative to control; settings: read-out: Activity
A498 [2] = test: Growth inhibition of human A498 cells assessed as cell growth at 0.1 uM incubated for 48 hrs by sulforhodamine B assay relative to control; settings: read-out: Activity
LOX IMVI = test: Growth inhibition of human LOX IMVI cells incubated for 48 hrs by sulforhodamine B assay
DU-145 = test: Growth inhibition of human DU-145 cells assessed as cell growth at 0.1 uM incubated for 48 hrs by sulforhodamine B assay relative to control; settings: read-out: Activity
HCT-116 [3] = test: Growth inhibition of human HCT-116 cells incubated for 48 hrs by sulforhodamine B assay
U-251 = test: Growth inhibition of human U-251 cells assessed as cell growth at 0.1 uM incubated for 48 hrs by sulforhodamine B assay relative to control; settings: read-out: Activity
OVCAR-4 [4] = test: Growth inhibition of human OVCAR-4 cells assessed as cell growth at 0.1 uM incubated for 48 hrs by sulforhodamine B assay relative to control; settings: read-out: Activity
NCI-H322M = test: Growth inhibition of human NCI-H322M cells assessed as cell growth at 0.01 uM incubated for 48 hrs by sulforhodamine B assay relative to control; settings: read-out: Activity
UO-31 = test: Growth inhibition of human UO-31 cells assessed as cell growth at 1 uM incubated for 48 hrs by sulforhodamine B assay relative to control; settings: read-out: Activity
OVCAR-5 [5] = test: Growth inhibition of human OVCAR-5 cells incubated for 48 hrs by sulforhodamine B assay
SK-OV-3 = test: Growth inhibition of human SK-OV-3 cells assessed as cell growth at 1 uM incubated for 48 hrs by sulforhodamine B assay relative to control; settings: read-out: Activity
HT-29 [6] = test: Growth inhibition of human HT-29 cells assessed as cell growth at 1 uM incubated for 48 hrs by sulforhodamine B assay relative to control; settings: read-out: Activity
PC-3 = test: Growth inhibition of human PC-3 cells assessed as cell growth at 1 uM incubated for 48 hrs by sulforhodamine B assay relative to control; settings: read-out: Activity
OVCAR-4 [7] = test: Growth inhibition of human OVCAR-4 cells assessed as cell growth at 100 uM incubated for 48 hrs by sulforhodamine B assay relative to control; settings: read-out: Activity
A549 [8] = test: Growth inhibition of human A549/ATCC cells incubated for 48 hrs by sulforhodamine B assay
TK-10 = test: Growth inhibition of human TK-10 cells assessed as cell growth at 0.1 uM incubated for 48 hrs by sulforhodamine B assay relative to control; settings: read-out: Activity
OVCAR-4 [9] = test: Growth inhibition of human OVCAR-4 cells assessed as cell growth at 0.01 uM incubated for 48 hrs by sulforhodamine B assay relative to control; settings: read-out: Activity
NCI-H460 = test: Growth inhibition of human NCI-H460 cells assessed as cell growth at 0.01 uM incubated for 48 hrs by sulforhodamine B assay relative to control; settings: read-out: Activity
CCRF-CEM = test: Growth inhibition of human CCRF-CEM cells assessed as cell growth at 1 uM incubated for 48 hrs by sulforhodamine B assay relative to control; settings: read-out: Activity
COLO 205 = test: Growth inhibition of human COLO 205 cells assessed as cell growth at 1 uM incubated for 48 hrs by sulforhodamine B assay relative to control; settings: read-out: Activity
RXF 393 = test: Growth inhibition of human RXF 393 cells incubated for 48 hrs by sulforhodamine B assay
HL-60(TB) = test: Growth inhibition of human HL-60(TB) cells assessed as cell growth at 100 uM incubated for 48 hrs by sulforhodamine B assay relative to control; settings: read-out: Activity
NCI/ADR-RES [10] = test: Growth inhibition of human NCI/ADR-RES cells assessed as cell growth at 100 uM incubated for 48 hrs by sulforhodamine B assay relative to control; settings: read-out: Activity
MOLT-4 = test: Growth inhibition of human MOLT-4 cells incubated for 48 hrs by sulforhodamine B assay
SNB-75 [11] = test: Growth inhibition of human SNB-75 cells assessed as cell growth at 100 uM incubated for 48 hrs by sulforhodamine B assay relative to control; settings: read-out: Activity
HT-29 [12] = test: Growth inhibition of human HT-29 cells assessed as cell growth at 100 uM incubated for 48 hrs by sulforhodamine B assay relative to control; settings: read-out: Activity
OVCAR-5 [13] = test: Growth inhibition of human OVCAR-5 cells assessed as cell growth at 1 uM incubated for 48 hrs by sulforhodamine B assay relative to control; settings: read-out: Activity
NCI/ADR-RES [14] = test: Growth inhibition of human NCI/ADR-RES cells assessed as cell growth at 0.1 uM incubated for 48 hrs by sulforhodamine B assay relative to control; settings: read-out: Activity
K562 [15] = test: Growth inhibition of human K562 cells assessed as cell growth at 1 uM incubated for 48 hrs by sulforhodamine B assay relative to control; settings: read-out: Activity
A498 [16] = test: Growth inhibition of human A498 cells assessed as cell growth at 100 uM incubated for 48 hrs by sulforhodamine B assay relative to control; settings: read-out: Activity
A549 [17] = test: Growth inhibition of human A549/ATCC cells assessed as cell growth at 0.1 uM incubated for 48 hrs by sulforhodamine B assay relative to control; settings: read-out: Activity
SNB-75 [18] = test: Growth inhibition of human SNB-75 cells assessed as cell growth at 1 uM incubated for 48 hrs by sulforhodamine B assay relative to control; settings: read-out: Activity
EKVX = test: Growth inhibition of human EKVX cells assessed as cell growth at 0.1 uM incubated for 48 hrs by sulforhodamine B assay relative to control; settings: read-out: Activity
HCT-116 [19] = test: Growth inhibition of human HCT-116 cells assessed as cell growth at 100 uM incubated for 48 hrs by sulforhodamine B assay relative to control; settings: read-out: Activity
K562 [20] = test: Growth inhibition of human K562 cells incubated for 48 hrs by sulforhodamine B assay
[21] = read-out: LC50 (the source's name)
[22] = read-out: pLC50 (the source's name) (converted)

CC(=O)Nc1cc(CO[Si](C)(C)C(C)(C)C)cc(NC(=O)c2ccc(C(=O)Nc3cccc(NC(=O)CCCN(C)C)c3)cc2)c1
growth at 100 µM (A549 [1]): 98%
growth at 0.1 µM (A498 [2]): 62%
GI50 (LOX IMVI; read-out: GI50): > 75 µM
LC50 (concentration giving 50% cell kill) (LOX IMVI; read-out: LC50): > 75 µM
TGI (LOX IMVI; read-out: TGI): > 75 µM
GI50 (LOX IMVI; read-out: pGI50 (converted)): > 75.9 µM
LC50 (concentration giving 50% cell kill) (LOX IMVI; read-out: pLC50 (converted)): > 75.9 µM
TGI (LOX IMVI; read-out: pTGI): > 75.9 µM
growth at 0.1 µM (DU-145): 100%
GI50 (HCT-116 [3]; read-out: GI50): > 75 µM
CC50 (HCT-116 [3]; [21]): > 75 µM
TGI (HCT-116 [3]; read-out: TGI): > 75 µM
GI50 (HCT-116 [3]; read-out: pGI50 (converted)): > 75.9 µM
CC50 (HCT-116 [3]; [22]): > 75.9 µM
TGI (HCT-116 [3]; read-out: pTGI): > 75.9 µM
growth at 0.1 µM (U-251): 100%
growth at 0.1 µM (OVCAR-4 [4]): 96%
growth at 0.01 µM (NCI-H322M): 102%
growth at 1 µM (UO-31): 105%
GI50 (OVCAR-5 [5]; read-out: GI50): > 75 µM
LC50 (OVCAR-5 [5]; read-out: LC50): > 75 µM
TGI (OVCAR-5 [5]; read-out: TGI): > 75 µM
GI50 (OVCAR-5 [5]; read-out: pGI50 (converted)): > 75.9 µM
LC50 (OVCAR-5 [5]; read-out: pLC50 (converted)): > 75.9 µM
TGI (OVCAR-5 [5]; read-out: pTGI): > 75.9 µM
growth at 1 µM (SK-OV-3): 107%
growth at 1 µM (HT-29 [6]): 113%
growth at 1 µM (PC-3): 105%
growth at 100 µM (OVCAR-4 [7]): 78%
GI50 (A549 [8]; read-out: GI50): > 75 µM
CC50 (A549 [8]; [21]): > 75 µM
TGI (A549 [8]; read-out: TGI): > 75 µM
GI50 (A549 [8]; read-out: pGI50 (converted)): > 75.9 µM
CC50 (A549 [8]; [22]): > 75.9 µM
TGI (A549 [8]; read-out: pTGI): > 75.9 µM
growth at 0.1 µM (TK-10): 99%
growth at 0.01 µM (OVCAR-4 [9]): 95%
growth at 0.01 µM (NCI-H460): 102%
growth at 1 µM (CCRF-CEM): 98%
growth at 1 µM (COLO 205): 109%
GI50 (RXF 393; read-out: GI50): > 75 µM
CC50 (RXF 393; [21]): > 75 µM
TGI (RXF 393; read-out: TGI): > 75 µM
GI50 (RXF 393; read-out: pGI50 (converted)): > 75.9 µM
CC50 (RXF 393; [22]): > 75.9 µM
TGI (RXF 393; read-out: pTGI): > 75.9 µM
growth at 100 µM (HL-60(TB)): 88%
growth at 100 µM (NCI/ADR-RES [10]): 92%
GI50 (MOLT-4; read-out: GI50): > 75 µM
CC50 (MOLT-4; [21]): > 75 µM
TGI (MOLT-4; read-out: TGI): > 75 µM
GI50 (MOLT-4; read-out: pGI50 (converted)): > 75.9 µM
CC50 (MOLT-4; [22]): > 75.9 µM
TGI (MOLT-4; read-out: pTGI): > 75.9 µM
growth at 100 µM (SNB-75 [11]): 50%
growth at 100 µM (HT-29 [12]): 100%
growth at 1 µM (OVCAR-5 [13]): 89%
growth at 0.1 µM (NCI/ADR-RES [14]): 97%
growth at 1 µM (K562 [15]): 95%
growth at 100 µM (A498 [16]): 51%
growth at 0.1 µM (A549 [17]): 99%
growth at 1 µM (SNB-75 [18]): 80%
growth at 0.1 µM (EKVX): 98%
growth at 100 µM (HCT-116 [19]): 85%
GI50 (K562 [20]; read-out: GI50): > 75 µM
CC50 (K562 [20]; [21]): > 75 µM
TGI (K562 [20]; read-out: TGI): > 75 µM
GI50 (K562 [20]; read-out: pGI50 (converted)): > 75.9 µM
CC50 (K562 [20]; [22]): > 75.9 µM
TGI (K562 [20]; read-out: pTGI): > 75.9 µM

Reference: ChEMBL document CHEMBL4715697, “Synthesis and biological activity of benzamide DNA minor groove binders” (2016)
